Where two headings read alike, the source gives them in different places.
How the values were obtained:
TPM3-TRKA fusion protein = target: T1, TPM3-TRKA fusion protein (Homo sapiens, UniProt P04629); assay: TPM3-TRKA fusion protein levels in KM12 cells (Western blot); format: cell-based; conditions: read-out: Degradation (at 10 nM)
T1 construct: The resulted chimeric proteins always retain the kinase domain of TRK proteins; TPM3 (fusion partner, N-terminal part of tropomyosin alpha-3, P06753); endogenous in cells; host or cells: KM12 colon cancer cells; the other entry of the earlier key: TPM3 (P06753, Tropomyosin alpha-3 chain)
Procedure, shortened: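 KM12 colon cancer cells were treated with DMSO or compounds at 0.1–100 nM, 0.4–30 nM or other stated concentrations for 4, 8–16 or 16 h. RIPA lysates were BCA-normalized and resolved by SDS-PAGE. TPM3-TRKA was detected by chemiluminescent Western blot, with bands quantified by densitometry.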

KM12 cells = assay: KM12 cell viability (CellTiter-Glo); format: cell-based; conditions: Homo sapiens
Procedure, shortened: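 KM12 cells seeded at 5000 per well in RPMI 1640 + 10% FBS and exposed 3 days to serial dilutions (11-point 3-fold, 8-point 3-fold from 1000 nM, or 12-point 2-fold). Viability by CellTiter-Glo; IC50 from least-squares nonlinear regression.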

[1] = 16 h, TPM3-TRKA degradation in KM12 cells at 10 nM compound, category of percentage degradation
[2] = 72 h, KM12 cell viability, CellTiter-Glo, three days treatment, read-out: IC50
[3] = 16 h, TPM3-TRKA degradation in KM12 cells at 10 nM
[4] = 72 h, KM12 cell viability, 11-point 3-fold serial dilution, 3 days, CellTiter-Glo, read-out: IC50

T1 sequence (P04629 with tags, fused parts or gaps): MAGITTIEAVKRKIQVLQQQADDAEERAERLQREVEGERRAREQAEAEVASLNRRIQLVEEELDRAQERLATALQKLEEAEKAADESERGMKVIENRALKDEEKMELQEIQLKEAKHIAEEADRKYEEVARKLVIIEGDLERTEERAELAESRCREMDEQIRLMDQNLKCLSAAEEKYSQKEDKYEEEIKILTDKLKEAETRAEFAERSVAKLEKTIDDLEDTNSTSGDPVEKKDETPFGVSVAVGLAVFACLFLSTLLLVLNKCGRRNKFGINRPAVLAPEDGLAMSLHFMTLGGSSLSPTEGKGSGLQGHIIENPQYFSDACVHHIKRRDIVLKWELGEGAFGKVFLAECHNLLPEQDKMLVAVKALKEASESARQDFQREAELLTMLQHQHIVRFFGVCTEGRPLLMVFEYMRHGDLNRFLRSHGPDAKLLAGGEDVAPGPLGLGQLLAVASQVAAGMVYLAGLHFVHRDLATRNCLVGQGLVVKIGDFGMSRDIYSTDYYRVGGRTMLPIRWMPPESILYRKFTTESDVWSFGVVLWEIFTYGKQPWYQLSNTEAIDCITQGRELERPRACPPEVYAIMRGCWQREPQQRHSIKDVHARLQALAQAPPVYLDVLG

Row | Structure (SMILES) | percent degradation of TPM3-TRKA protein at 0.01 µM (TPM3-TRKA fusion protein; [1]) [%] | IC50 (KM12 cells; [2]) [nM] | also measured
1 | O=C1CCC(N2C(=O)c3ccc(NCCOCCOCCOCCOCCC(=O)N4CCN(c5ccc(C(=O)Nc6n[nH]c7ccc(Cc8cc(F)cc(F)c8)cc67)c(NC6CCOCC6)c5)CC4)cc3C2=O)C(=O)N1 (stereo not shown) [TR-140, N-(5-(3,5-Difluorobenzyl)-1H-indazol-3-yl)-4-(4-(1-((2-(2,6-dioxopiperidin-3-yl)-1,3-dioxoisoindolin-5-yl)amino)-3,6,9,12-tetraoxapentadecan-15-oyl)piperazin-1-yl)-2˜ ((tetrahydro-2H-pyran-4-yl)amino)benzamide] | > 80 | 1.6 | 
2 | O=C1CCC(N2Cc3ccc(N4CC(N5CCN(c6cccc(-c7cnc8ccc(N9CCC[C@@H]9c9cccc(F)c9)nn78)n6)CC5)C4)cc3C2=O)C(=O)N1 (stereo partly drawn) [TR-335, 3-(6-(3-(4-(6-(6-((R)-2-(3-fluorophenyl)pyrrolidin-1-yl)imidazo[1,2-b]pyridazin-3-yl)pyridin-2-yl)piperazin-1-yl)azetidin-1-yl)-1-oxoisoindolin-2-yl)piperidine-2,6-dione] | 50 to 80 | 8.3 | 
3 | Cn1c(=O)n(C2CCC(=O)NC2=O)c2ccc(OCCN3CCN(c4ccc(C(=O)Nc5n[nH]c6ccc(Cc7cc(F)cc(F)c7)cc56)c(NC5CCOCC5)c4)CC3)cc21 (stereo not shown) [TR-314, N-(5-(3,5˜Difluorobenzyl)-1H-indazol-3-yl)-4-(4-(2-((1-(2,6-dioxopiperidin-3˜yl)-3-methyl-2-oxo-2,3-dihydro-1H-benzo[d]imidazol-5-yl)oxy)ethyl)piperazin-1-yl)-2-((tetrahydro-2H-pyran-4-yl)amino)benzamide] |  |  | percent degradation of TPM3-TRKA protein at 0.01 µM (TPM3-TRKA fusion protein; KM12, 16 h): 50 to 80%; IC50 (KM12 cells; KM12, 72 h): 213 nM
4 | NC(=O)C1CCN(c2cc(CN3CCN(C(=O)CCOCCNc4cccc5c4C(=O)N(C4CCC(=O)NC4=O)C5=O)CC3)ccc2NC(=O)c2coc(N3CCOCC3)n2)CC1 (stereo not shown) [CPD-485, N-(2-(4-carbamoylpiperidin-1-yl)-4-((4-(3-(2-((2-(2,6-dioxopiperidin-3-yl)-1,3-dioxoisoindolin-4-yl)amino)ethoxy)propanoyl)piperazin-1-yl)methyl)phenyl)-2-morpholinooxazole-4-carboxamide] |  |  | percent degradation of TPM3-TRKA protein at 0.01 µM (TPM3-TRKA fusion protein; [3]): 50 to 80%; IC50 (KM12 cells; [4]): 94 nM
5 | NC(=O)C1CCN(c2cc(CN3CCN(C(=O)CCCNc4cccc5c4C(=O)N(C4CCC(=O)NC4=O)C5=O)CC3)ccc2NC(=O)c2coc(N3CCOCC3)n2)CC1 (stereo not shown) [CPD-480, N-(2-(4-carbamoylpiperidin-1-yl)-4-((4-(4-((2-(2,6-dioxopiperidin-3-yl)-1,3-dioxoisoindolin-4-yl)amino)butanoyl)piperazin-1-yl)methyl)phenyl)-2-morpholinooxazole-4-carboxamide] |  |  | percent degradation of TPM3-TRKA protein at 0.01 µM (TPM3-TRKA fusion protein; [3]): > 80%; IC50 (KM12 cells; [4]): 22 nM
6 | O=C1CCC(n2nnc3cccc(N4CC(CCN5CCN(c6ccc(C(=O)Nc7n[nH]c8ccc(Cc9cc(F)cc(F)c9)cc78)c(NC7CCOCC7)c6)CC5)C4)c3c2=O)C(=O)N1 (stereo not shown) [TR-327, N-(5-(3,5-Difluorobenzyl)-1H-indazol-3-yl)-4-(4-(2-(1-(3-(2,6-dioxopiperidin-3-yl)-4-oxo-3,4-dihydrobenzo[d][1,2,3]triazin-5-yl)azetidin-3-yl)ethyl)piperazin-1-yl)-2-((tetrahydro-2/-pyran-4-yl)amino)benzamide] | 50 to 80 | 13.3 | 
7 | O=C1CCC(n2c(=O)n(CCN3CCN(c4cccc(-c5cnc6ccc(N7CCC[C@@H]7c7cccc(F)c7)nn56)n4)CC3)c3ccccc32)C(=O)N1 (stereo partly drawn) [TR-227, 3-(3-(2-(4-(6-(6-((R)-2-(3-Fluorophenyl)pyrrolidin-1-yl)imidazo[1,2-b]pyridazin-3-yl)pyridin-2-yl)piperazin-1-yl)ethyl)-2-oxo-2,3-dihydro-1H-benzo[d]imidazol-1-yl)piperidine-2,6-dione] | 50 to 80 | 23.6 | 
8 | O=C1CCC(N2C(=O)c3ccc(NCCN4CCN(c5ccc(C(=O)Nc6n[nH]c7ccc(Cc8cc(F)cc(F)c8)cc67)cc5)CC4)cc3C2=O)C(=O)N1 (stereo not shown) [TR-263, N-(5-(3,5-difluorobenzyl)-1H-indazol-3-yl)-4-(4-(2-((2-(2,6-dioxopiperidin-3-yl)-1,3-dioxoisoindolin-5-yl)amino)ethyl)piperazin-1-yl)benzamide] | 50 to 80 | 19.2 | 
9 | O=C1CCC(n2c(=O)n(CCCN3CCN(c4cccc(-c5cnc6ccc(N7CCC[C@@H]7c7cccc(F)c7)nn56)n4)CC3)c3ccccc32)C(=O)N1 (stereo partly drawn) [TR-228, 3-(3-(3-(4-(6-(6-((R)-2-(3-fluorophenyl)pyrrolidin-1-yl)imidazo[1,2-b]pyridazin-3-yl)pyridin-2-yl)piperazin-1-yl)propyl)-2-oxo-2,3-dihydro-1H-benzo[d]imidazol-1-yl)piperidine-2,6-dione] | 50 to 80 | 56.3 | 
10 | O=C1CCC(N2C(=O)c3ccc(N4CCC(CN5CCN(c6ccc(C(=O)Nc7n[nH]c8ccc(Cc9cc(F)cc(F)c9)cc78)c(NC7CCOCC7)c6)CC5)C4)cc3C2=O)C(=O)N1 (stereo not shown) [TR-270, N-(5-(3,5-difluorobenzyl)-1H-indazol-3-yl)-4-(4-((1-(2-(2,6-dioxopiperidin-3-yl)-1,3-dioxoisoindolin-5-yl)pyrrolidin-3-yl)methyl)piperazin-1-yl)-2-((tetrahydro-2H-pyran-4-yl)amino)benzamide] | > 80 | 10.3 | 
11 | Cn1c(=O)n(C2CCC(=O)NC2=O)c2cccc(CCCCN3CCN(c4ccc(C(=O)Nc5n[nH]c6ccc(Cc7cc(F)cc(F)c7)cc56)c(NC5CCOCC5)c4)CC3)c21 (stereo not shown) [TR-304, N-(5-(3,5-difluorobenzyl)-1H-indazol-3-yl)-4-(4-(4-(1-(2,6-dioxopiperidin-3-yl)-3-methyl-2-oxo-2,3-dihydro-1H-benzo[d]imidazol-4-yl)butyl)piperazin-1-yl)-2-((tetrahydro-2H-pyran-4-yl)amino)benzamide] | > 80 | 1.5 | 
12 | Cn1c(=O)n(C2CCC(=O)NC2=O)c2ccc(N3CC(CN4CCN(c5ccc(C(=O)Nc6n[nH]c7ccc(Cc8cc(F)cc(F)c8)cc67)c(NC6CCOCC6)c5)CC4)C3)cc21 (stereo not shown) [TR-321, N-(5-(3,5-difluorobenzyl)-1H-indazol-3-yl)-4-(4-((1-(1-(2,6-dioxopiperidin-3-yl)-3-methyl-2-oxo-2,3-dihydro-1H-benzo[d]imidazol-5-yl)azetidin-3-yl)methyl)piperazin-1-yl)-2-((tetrahydro-2H-pyran-4-yl)amino)benzamide] | > 80 | 2.3 | 
13 | O=C1CCC(N2Cc3cc(NCC(=O)N4CCN(c5cccc(-c6cnc7ccc(N8CCC[C@@H]8c8cccc(F)c8)nn67)n5)CC4)ccc3C2=O)C(=O)N1 (stereo partly drawn) [TR-190, 3-(5-((2-(4-(6-(6-((R)-2-(3-fluorophenyl)pyrrolidin-1-yl)imidazo[1,2-b]pyridazin-3-yl)pyridin-2-yl)piperazin-1-yl)-2-oxoethyl)amino)-1-oxoisoindolin-2-yl)piperidine-2,6-dione] | > 80 | 8.7 | 
14 | O=C1CCC(N2Cc3cc(C#CCN4CCN(c5ccc(C(=O)Nc6n[nH]c7ccc(Cc8cc(F)cc(F)c8)cc67)cc5)CC4)ccc3C2=O)C(=O)N1 (stereo not drawn) [TR-256, N—(S-(3,5-Difluorobenzyl)-1H-indazol-3-yl)-4-(4-(3-(2-(2,6-dioxopiperidin-3-yl)-1-oxoisoindolin-5-yl)prop-2-yn-1-yl)piperazin-1˜yl)benzamide] | 50 to 80 | 46.9 | 
15 | O=C1CCC(N2C(=O)c3ccc(N4CCOC(CN5CCN(c6ccc(C(=O)Nc7n[nH]c8ccc(Cc9cc(F)cc(F)c9)cc78)c(NC7CCOCC7)c6)CC5)C4)cc3C2=O)C(=O)N1 (stereo not shown) [TR-282, N-(5-(3,5-difluorobenzyl)-1H-indazol-3-yl)-4-(4-((4-(2-(2,6-dioxopiperidin-3-yl)-1,3-dioxoisoindolin-5-yl)morpholin-2-yl)methyl)piperazin-1-yl)-2-((tetrahydro-2H-pyran-4-yl)amino)benzamide] | > 80 | 6.3 | 
16 | O=C1CCC(N2C(=O)c3ccc(C4CN(CC5CCN(c6cccc(-c7cnc8ccc(N9CCC[C@@H]9c9cccc(F)c9)nn78)n6)CC5)C4)cc3C2=O)C(=O)N1 (stereo partly drawn) [TR-293, 2-(2,6-dioxopiperidin-3-yl)-5-(1-((1-(6-(6-((R)-2-(3-fluorophenyl)pyrrolidin-1-yl)imidazo[1,2-b]pyridazin-3-yl)pyridin-2-yl)piperidin-4-yl)methyl)azetidin-3-yl)isoindoline-1,3-dione] | > 80 | 9.5 | 
17 | Cn1c(=O)n(C2CCC(=O)NC2=O)c2ccc(CCCCN3CCN(c4cccc(-c5cnc6ccc(N7CCC[C@@H]7c7cccc(F)c7)nn56)n4)CC3)cc21 (stereo partly drawn) [TR-259, 3-(5-(4-(4-(6-(6-((R)-2-(3-fluorophenyl)pyrrolidin-1-yl)imidazo[1,2-b]pyridazin-3-yl)pyridin-2-yl)piperazin-1-yl)butyl)-3-methyl-2-oxo-2,3-dihydro-1H-benzo[d]imidazol-1-yl)piperidine-2,6-dione] | > 80 | 5.3 | 
